Test results reported in ChEMBL document CHEMBL1201862, “PubChem BioAssay data set” (2004).
Calls of active or inactive are those of the source.

How the values were obtained:
[1] = loss of viability in HepG2 cells – cell-based, CellTiter-Glo, cherry-picked, cytotoxicity control for Shn3 inhibitor project, dose response (AID 624134); type: functional
Hexokinase HKDC1 = target: T1, Hexokinase HKDC1 (Homo sapiens, UniProt Q2TB90); experiment: activation of HKDC1 glucose phosphorylation – biochemical, W721R variant, dose response (AID 504730); type: functional
T1 sequence (Q2TB90 whole entry): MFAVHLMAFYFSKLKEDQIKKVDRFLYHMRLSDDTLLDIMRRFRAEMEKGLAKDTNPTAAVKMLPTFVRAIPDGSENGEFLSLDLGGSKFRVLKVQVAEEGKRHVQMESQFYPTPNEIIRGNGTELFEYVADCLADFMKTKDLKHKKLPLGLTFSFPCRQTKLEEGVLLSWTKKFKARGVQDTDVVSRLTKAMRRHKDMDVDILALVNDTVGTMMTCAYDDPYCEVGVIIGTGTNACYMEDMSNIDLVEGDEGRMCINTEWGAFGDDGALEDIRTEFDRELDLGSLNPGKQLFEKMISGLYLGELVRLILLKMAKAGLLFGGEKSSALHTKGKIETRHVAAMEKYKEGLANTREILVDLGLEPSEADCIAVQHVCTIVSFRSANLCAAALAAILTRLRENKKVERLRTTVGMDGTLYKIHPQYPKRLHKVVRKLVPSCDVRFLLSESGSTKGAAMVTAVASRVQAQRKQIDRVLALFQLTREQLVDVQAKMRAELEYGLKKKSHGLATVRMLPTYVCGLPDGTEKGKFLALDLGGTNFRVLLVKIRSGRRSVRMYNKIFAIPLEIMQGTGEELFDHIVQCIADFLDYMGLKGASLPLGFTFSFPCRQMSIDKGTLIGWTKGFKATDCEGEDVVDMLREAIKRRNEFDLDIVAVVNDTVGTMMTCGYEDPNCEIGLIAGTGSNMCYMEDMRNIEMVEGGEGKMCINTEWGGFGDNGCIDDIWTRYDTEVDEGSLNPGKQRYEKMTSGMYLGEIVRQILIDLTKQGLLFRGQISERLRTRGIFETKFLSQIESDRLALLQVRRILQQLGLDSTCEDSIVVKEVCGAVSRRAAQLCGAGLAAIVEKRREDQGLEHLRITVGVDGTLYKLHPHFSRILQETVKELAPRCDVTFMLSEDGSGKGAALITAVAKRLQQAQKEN

[2] = non-specific 3'UTR reporter inhibition in Clone20-Shn3RL – cell-based, Renilla luciferase, cherry-picked, counter-screen for Shn3 inhibitor project, dose response (AID 624133); type: functional
[3] = reduction of Shn3 3'UTR-driven luciferase in osteoblasts – cell-based, Clone20 osteoblasts, firefly luciferase, cherry-picked, dose response (AID 624132); type: functional;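 note: firefly luciferase luminescence from reporter carrying the Shn3 3'UTR in osteoblasts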
Hexokinase-1 = target: T2, Hexokinase-1 (Homo sapiens, UniProt P19367); experiment: HK1 enzyme activation by HKDC1 hits – biochemical, selectivity assay for HKDC1 activator project, dose response (AID 504762); type: functional
T2 sequence (P19367 whole entry): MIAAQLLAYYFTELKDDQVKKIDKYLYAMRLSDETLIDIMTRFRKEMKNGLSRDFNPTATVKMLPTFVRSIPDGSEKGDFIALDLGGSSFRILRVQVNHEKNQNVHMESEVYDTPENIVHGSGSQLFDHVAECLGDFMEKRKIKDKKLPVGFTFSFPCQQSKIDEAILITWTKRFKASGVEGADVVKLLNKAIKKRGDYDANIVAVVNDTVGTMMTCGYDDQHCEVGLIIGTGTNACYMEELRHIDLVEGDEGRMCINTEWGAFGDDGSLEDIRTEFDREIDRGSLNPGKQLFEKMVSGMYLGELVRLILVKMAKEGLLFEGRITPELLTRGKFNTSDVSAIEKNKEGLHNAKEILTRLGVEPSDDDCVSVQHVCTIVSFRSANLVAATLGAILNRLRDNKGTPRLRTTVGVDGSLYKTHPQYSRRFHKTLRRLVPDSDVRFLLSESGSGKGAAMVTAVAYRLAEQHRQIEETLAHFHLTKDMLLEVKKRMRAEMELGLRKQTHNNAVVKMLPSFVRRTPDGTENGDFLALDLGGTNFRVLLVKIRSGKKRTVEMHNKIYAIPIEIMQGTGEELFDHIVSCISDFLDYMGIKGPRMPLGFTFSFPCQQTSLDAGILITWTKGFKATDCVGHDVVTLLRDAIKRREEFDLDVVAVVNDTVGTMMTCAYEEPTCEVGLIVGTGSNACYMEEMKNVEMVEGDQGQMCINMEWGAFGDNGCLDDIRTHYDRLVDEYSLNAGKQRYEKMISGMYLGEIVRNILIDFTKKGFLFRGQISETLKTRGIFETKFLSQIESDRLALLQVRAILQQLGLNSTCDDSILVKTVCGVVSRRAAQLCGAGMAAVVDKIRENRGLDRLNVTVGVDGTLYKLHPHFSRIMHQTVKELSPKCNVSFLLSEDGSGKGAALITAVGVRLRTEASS

INS1 = experiment: INS-1E survival protection against cytokine death – cell-based, luminescence, retest, dose response (AID 449756); type: functional; conditions: Rattus norvegicus;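 note: cell death triggered by IL-1 beta plus TNF-alpha plus IFN-gamma mixture; protective hits raise ATP signal compared with cytokine alone wells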
[4] = target: T3, Short transient receptor potential channel 4 (Mus musculus, UniProt Q9QUQ5); experiment: calcium entry via TRPC4 opening agents – cell-based, HEK293 TRPC4/mu-opioid, Fluo-4 calcium, dose response (AID 434937); type: functional
T3 sequence (Q9QUQ5 whole entry): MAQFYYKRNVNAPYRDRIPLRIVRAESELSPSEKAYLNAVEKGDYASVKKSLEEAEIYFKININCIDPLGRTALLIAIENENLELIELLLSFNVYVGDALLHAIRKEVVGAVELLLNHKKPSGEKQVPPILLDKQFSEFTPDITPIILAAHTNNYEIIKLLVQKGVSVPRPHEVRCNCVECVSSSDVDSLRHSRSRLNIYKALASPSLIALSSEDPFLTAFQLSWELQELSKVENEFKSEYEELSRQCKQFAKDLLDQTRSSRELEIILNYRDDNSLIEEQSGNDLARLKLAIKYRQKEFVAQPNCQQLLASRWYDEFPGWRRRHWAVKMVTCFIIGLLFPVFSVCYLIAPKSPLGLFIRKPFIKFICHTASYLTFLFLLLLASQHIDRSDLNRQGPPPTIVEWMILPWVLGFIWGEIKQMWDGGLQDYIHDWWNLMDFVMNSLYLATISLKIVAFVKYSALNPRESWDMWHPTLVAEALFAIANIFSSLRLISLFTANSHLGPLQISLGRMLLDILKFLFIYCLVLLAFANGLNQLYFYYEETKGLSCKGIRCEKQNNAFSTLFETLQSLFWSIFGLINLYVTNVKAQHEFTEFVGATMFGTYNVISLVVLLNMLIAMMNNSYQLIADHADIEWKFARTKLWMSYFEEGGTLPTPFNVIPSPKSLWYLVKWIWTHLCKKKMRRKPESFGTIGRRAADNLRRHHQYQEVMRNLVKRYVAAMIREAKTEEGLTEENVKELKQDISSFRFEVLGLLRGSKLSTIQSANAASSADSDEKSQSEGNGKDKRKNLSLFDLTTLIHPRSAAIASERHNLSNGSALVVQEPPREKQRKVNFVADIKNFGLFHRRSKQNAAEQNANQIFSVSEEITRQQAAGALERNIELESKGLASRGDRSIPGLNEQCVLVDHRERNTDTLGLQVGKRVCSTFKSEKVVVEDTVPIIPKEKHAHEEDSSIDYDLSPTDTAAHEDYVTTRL

[5] = target: T3, Short transient receptor potential channel 4; experiment: block of DAMGO-driven TRPC4 calcium entry – cell-based, HEK293 TRPC4/mu-opioid, Fluo-4 calcium, dose response (AID 434942); type: functional;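 note: potency of inhibitors blocking the TRPC4 calcium response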
[6] = viability of HCT116 lacking mutant beta-catenin – cell-based, human colon tumor, dose response (AID 1045); type: functional;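 note: HCT116 colon tumor cells with beta catenin knocked out; cells exposed to compound for 60 hours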
[7] = target: Voltage-dependent T-type calcium channel subunit alpha-1H (Homo sapiens, UniProt O95180); type: functional;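 note: channel activity triggered by adding a high calcium stimulation buffer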
[8] = viability of PTEN-deleted HCT116 cells – cell-based, HCT116 PTEN knockout, dose response (AID 1047); type: functional;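 note: HCT116 colon tumor cells with PTEN knocked out; cells exposed to compound for 60 hours before readout; potency for loss of cell viability measured by luminescence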
[9] = target: T4, Runt-related transcription factor 1/Core-binding factor subunit beta (Homo sapiens, UniProt Q01196+Q13951); experiment: disruptors of Runt domain/CBFb-SMMHC interaction – biochemical, FRET, Cerulean-Runt, Venus-CBFb-SMMHC, uHTS, […] (AID 1434); type: protein assay
[10] = target: T5, Apoptotic protease-activating factor 1 (Homo sapiens, UniProt O14727); type: functional
T5 sequence (O14727 whole entry): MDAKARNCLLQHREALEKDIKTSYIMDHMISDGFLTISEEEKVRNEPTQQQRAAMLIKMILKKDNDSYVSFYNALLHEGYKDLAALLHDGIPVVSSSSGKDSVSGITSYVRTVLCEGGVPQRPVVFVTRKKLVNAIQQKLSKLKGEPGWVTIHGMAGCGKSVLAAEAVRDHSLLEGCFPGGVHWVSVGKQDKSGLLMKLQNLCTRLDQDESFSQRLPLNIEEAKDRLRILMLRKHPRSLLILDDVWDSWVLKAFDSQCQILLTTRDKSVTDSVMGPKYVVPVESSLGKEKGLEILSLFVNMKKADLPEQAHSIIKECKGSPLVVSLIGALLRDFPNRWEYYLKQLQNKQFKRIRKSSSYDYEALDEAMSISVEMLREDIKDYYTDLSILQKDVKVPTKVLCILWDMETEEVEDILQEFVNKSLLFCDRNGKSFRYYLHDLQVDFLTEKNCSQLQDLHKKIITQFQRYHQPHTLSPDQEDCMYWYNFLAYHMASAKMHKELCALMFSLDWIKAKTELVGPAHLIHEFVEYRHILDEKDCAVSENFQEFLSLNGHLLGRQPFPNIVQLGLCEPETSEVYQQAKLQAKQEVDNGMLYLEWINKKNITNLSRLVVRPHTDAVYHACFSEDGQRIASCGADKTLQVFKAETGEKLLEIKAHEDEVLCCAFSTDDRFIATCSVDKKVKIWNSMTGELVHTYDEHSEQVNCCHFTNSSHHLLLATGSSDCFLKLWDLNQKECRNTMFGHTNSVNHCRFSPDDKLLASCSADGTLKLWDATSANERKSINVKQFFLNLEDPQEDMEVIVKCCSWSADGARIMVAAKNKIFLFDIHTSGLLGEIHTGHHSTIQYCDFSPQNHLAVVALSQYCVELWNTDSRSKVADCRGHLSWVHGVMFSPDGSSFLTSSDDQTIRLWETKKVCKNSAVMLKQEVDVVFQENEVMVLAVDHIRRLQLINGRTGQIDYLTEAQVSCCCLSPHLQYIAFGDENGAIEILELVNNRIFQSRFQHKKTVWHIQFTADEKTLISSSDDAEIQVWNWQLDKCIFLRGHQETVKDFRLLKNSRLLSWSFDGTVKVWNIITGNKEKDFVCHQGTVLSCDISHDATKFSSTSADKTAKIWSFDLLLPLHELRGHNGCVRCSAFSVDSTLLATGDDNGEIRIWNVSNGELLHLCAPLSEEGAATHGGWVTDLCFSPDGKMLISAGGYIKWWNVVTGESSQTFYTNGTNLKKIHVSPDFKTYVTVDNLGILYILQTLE

[11] = target: T4, Runt-related transcription factor 1/Core-binding factor subunit beta; experiment: Runt domain/CBFb-SMMHC interaction disruptors – biochemical, TR-FRET (AID 1438); type: protein assay
[12] = target: T6, Lysine-specific demethylase 4C (Homo sapiens, UniProt Q9H3R0); experiment: inhibition of JMJD2C H3K9me3 demethylation – biochemical, DELFIA europium, cherry-picked samples, dose response (AID 488835); type: functional
T6 sequence (Q9H3R0 whole entry): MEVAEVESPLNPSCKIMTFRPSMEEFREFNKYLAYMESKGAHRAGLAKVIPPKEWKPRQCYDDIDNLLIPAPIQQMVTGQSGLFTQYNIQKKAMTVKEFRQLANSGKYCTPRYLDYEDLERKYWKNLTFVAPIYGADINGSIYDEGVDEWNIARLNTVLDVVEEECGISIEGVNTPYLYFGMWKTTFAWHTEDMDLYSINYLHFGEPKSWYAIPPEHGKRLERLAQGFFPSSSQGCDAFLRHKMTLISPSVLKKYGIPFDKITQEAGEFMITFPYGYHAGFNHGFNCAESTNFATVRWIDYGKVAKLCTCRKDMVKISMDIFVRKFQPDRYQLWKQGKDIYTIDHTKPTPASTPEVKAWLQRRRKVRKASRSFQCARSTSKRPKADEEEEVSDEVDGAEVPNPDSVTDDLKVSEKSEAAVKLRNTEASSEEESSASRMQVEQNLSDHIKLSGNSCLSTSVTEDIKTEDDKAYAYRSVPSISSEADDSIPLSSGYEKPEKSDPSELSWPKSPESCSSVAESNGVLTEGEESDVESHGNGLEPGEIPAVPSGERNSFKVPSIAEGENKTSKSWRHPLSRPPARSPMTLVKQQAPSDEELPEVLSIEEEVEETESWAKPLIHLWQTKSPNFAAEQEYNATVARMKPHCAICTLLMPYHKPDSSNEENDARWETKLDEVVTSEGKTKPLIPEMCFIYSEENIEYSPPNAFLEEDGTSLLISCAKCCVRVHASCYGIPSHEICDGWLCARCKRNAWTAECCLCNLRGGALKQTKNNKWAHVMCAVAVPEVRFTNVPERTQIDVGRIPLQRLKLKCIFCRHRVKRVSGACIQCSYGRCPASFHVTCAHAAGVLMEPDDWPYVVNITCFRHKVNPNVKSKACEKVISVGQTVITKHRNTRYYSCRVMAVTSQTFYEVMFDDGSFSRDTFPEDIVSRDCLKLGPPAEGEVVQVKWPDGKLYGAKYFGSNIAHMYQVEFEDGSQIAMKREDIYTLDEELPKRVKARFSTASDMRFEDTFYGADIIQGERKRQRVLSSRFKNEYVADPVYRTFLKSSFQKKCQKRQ

T4 sequence (Q01196 whole entry, the tested form may be a part): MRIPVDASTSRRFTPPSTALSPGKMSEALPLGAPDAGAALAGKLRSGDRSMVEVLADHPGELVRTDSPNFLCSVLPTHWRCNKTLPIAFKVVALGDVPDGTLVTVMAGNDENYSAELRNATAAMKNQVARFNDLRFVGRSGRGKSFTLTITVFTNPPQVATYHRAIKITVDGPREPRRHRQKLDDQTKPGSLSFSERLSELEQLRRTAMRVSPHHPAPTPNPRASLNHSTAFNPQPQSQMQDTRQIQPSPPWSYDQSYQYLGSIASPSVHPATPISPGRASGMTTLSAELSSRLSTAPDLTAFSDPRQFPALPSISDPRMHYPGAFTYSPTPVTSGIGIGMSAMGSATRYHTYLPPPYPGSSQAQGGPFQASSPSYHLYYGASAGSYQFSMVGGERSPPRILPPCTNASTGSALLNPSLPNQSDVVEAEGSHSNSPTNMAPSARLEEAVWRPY
T4 sequence (Q13951 whole entry, the tested form may be a part): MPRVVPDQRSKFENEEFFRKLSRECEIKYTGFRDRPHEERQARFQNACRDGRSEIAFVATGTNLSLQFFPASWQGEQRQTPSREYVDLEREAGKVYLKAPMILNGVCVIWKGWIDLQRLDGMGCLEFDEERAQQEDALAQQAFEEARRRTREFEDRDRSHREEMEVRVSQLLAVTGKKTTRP
Chain of Voltage-dependent T-type calcium channel subunit alpha-1H (O95180 whole entry): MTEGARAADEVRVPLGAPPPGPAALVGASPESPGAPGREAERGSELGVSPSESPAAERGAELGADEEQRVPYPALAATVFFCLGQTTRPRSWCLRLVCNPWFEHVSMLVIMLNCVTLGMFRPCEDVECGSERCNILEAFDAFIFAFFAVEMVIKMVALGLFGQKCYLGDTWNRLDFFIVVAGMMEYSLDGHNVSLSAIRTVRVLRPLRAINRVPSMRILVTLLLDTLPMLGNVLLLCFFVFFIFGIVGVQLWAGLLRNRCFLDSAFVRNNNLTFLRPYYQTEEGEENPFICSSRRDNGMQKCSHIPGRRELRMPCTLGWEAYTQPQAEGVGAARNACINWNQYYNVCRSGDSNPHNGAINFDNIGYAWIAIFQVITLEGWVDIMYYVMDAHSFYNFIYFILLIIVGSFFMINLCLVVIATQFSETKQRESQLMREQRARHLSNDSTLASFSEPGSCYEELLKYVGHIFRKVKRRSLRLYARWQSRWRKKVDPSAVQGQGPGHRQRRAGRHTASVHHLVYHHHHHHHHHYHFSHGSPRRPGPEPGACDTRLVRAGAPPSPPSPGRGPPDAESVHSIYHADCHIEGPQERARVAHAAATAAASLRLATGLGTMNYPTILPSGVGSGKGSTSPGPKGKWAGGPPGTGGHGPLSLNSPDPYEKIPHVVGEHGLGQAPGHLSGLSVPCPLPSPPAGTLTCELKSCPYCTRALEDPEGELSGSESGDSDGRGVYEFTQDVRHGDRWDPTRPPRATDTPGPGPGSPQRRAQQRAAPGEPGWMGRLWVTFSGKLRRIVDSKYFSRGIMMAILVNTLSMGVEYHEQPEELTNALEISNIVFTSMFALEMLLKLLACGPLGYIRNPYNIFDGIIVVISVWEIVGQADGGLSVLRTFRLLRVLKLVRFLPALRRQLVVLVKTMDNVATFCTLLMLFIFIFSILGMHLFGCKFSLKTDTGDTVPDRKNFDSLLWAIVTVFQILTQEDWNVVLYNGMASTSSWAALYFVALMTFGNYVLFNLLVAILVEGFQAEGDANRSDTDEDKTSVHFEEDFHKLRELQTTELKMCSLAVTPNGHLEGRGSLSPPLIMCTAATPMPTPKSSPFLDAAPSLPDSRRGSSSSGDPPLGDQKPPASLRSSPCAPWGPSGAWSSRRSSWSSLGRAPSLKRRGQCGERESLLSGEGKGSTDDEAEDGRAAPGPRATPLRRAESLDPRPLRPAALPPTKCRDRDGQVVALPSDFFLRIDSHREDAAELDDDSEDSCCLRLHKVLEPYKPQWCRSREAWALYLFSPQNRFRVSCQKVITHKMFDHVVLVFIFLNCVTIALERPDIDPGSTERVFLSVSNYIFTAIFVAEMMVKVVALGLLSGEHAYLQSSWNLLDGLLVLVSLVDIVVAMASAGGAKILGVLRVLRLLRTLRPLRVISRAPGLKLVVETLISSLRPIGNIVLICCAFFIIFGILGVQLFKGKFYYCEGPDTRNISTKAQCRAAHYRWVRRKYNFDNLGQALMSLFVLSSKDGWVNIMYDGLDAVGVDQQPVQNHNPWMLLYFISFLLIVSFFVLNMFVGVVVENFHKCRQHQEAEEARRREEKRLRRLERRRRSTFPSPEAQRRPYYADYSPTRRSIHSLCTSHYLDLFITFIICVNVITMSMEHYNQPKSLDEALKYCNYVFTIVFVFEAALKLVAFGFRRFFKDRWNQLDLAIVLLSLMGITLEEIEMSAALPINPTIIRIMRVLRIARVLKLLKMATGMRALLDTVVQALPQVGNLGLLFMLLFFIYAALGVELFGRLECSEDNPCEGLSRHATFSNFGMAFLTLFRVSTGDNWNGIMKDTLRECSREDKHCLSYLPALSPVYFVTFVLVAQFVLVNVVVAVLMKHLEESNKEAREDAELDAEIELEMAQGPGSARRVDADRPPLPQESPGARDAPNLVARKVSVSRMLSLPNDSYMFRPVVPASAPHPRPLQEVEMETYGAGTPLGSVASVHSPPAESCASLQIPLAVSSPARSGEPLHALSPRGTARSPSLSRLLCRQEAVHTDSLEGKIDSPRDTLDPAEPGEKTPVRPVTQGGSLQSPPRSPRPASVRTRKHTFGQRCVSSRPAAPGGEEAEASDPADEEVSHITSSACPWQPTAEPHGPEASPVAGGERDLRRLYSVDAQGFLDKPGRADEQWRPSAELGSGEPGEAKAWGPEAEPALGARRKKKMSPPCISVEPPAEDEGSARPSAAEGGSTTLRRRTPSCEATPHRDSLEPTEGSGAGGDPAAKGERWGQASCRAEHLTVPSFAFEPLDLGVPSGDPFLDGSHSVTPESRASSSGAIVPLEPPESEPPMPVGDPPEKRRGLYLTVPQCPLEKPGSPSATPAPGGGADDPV

C=CCn1nc([N+](=O)[O-])nc1Sc1cccc2cccnc12
AC50 [1]: 30.3 µM (active) | EC50 (Hexokinase HKDC1): > 80 µM (inactive) | AC50 [2]: 7.05 µM (active) | AC50 [3]: 10.7 µM (active) | EC50 (Hexokinase-1): > 80 µM (inactive) | AC50 (INS1): 1.24 µM (active)

Clc1ccc(COn2c(-c3ccc(Cl)cc3Cl)nc3ncccc32)cc1
EC50 [4]: 4.22 µM (active) | EC50 [5]: 1.33 µM (active)

O=C(CN1CCN(c2ncc(C(F)(F)F)cc2Cl)CC1)N1CCN(c2ncc(C(F)(F)F)cc2Cl)CC1
EC50 [4]: 3.35 µM (active) | EC50 [6]: 49.1 µM (active) | EC50 [7]: 8.68 µM (active) | EC50 [8]: 48.4 µM (active)

COCCCNC(=O)c1c(NC(=O)c2ccco2)n(Cc2ccccc2)c2nc3ccccc3nc12
IC50 [9]: 0.34 µM (active) | IC50 [10]: > 100 µM (inactive) | IC50 [11]: 16 µM (active)

CC(C)(C)c1ccc(-c2csc(NNC3=NCCCCC3)n2)cc1
EC50 (Hexokinase HKDC1): 38.1 µM (inactive) | AC50 [12]: 22.3 µM (active) | EC50 (Hexokinase-1): 47.4 µM (inactive)
